# How the values were obtained:
# [1] = biological target: ATP-binding cassette sub-family C member 3 (Mus musculus, UniProt B2RX12); test: (§1) TP_TRANSPORTER: quantitative PCR in vivo, liver of mouse; assay type: functional, organism-based
# [2] = biological target: ATP-binding cassette sub-family C member 2 (Mus musculus, UniProt Q8VI47); test: as §1; assay type: functional, organism-based
# ATP-binding cassette sub-family C member 2, sequence (Q8VI47 whole entry): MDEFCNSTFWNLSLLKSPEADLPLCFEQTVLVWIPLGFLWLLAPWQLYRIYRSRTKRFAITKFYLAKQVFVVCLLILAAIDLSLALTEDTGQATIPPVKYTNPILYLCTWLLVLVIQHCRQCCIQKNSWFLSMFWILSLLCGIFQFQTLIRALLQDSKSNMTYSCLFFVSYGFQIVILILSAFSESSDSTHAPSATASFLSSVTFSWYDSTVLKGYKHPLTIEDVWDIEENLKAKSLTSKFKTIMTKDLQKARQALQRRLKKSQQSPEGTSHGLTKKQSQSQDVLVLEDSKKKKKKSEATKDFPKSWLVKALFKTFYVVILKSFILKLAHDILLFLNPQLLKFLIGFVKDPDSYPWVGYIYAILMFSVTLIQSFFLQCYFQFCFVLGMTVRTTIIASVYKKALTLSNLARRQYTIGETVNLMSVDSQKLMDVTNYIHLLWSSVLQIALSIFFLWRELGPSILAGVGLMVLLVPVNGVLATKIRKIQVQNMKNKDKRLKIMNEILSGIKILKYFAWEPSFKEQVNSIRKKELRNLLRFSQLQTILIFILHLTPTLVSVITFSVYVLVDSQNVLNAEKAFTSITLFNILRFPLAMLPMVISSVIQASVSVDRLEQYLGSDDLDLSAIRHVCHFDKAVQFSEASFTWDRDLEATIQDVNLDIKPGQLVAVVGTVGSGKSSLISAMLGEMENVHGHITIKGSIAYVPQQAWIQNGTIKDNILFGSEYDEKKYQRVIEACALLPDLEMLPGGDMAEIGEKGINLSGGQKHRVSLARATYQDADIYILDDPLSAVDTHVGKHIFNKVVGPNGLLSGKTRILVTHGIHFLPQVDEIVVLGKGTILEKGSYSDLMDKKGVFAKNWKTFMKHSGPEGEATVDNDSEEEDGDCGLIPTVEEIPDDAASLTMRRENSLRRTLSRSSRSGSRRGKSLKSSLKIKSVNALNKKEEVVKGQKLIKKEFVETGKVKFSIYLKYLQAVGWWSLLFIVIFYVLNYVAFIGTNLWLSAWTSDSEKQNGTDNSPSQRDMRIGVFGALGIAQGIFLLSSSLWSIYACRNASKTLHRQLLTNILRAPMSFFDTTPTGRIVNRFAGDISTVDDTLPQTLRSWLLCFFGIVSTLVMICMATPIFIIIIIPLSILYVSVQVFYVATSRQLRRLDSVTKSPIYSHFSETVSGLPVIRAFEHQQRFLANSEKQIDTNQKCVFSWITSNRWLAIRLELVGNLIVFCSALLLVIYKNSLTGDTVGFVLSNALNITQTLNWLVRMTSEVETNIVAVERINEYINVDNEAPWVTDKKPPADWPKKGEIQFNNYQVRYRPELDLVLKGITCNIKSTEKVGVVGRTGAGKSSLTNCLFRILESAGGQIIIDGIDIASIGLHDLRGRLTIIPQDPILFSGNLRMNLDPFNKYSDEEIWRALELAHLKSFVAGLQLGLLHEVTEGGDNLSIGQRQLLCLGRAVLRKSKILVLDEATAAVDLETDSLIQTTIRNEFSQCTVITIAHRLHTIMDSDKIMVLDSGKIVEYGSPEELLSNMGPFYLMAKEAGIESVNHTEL
# ATP-binding cassette sub-family C member 3, sequence (B2RX12 whole entry): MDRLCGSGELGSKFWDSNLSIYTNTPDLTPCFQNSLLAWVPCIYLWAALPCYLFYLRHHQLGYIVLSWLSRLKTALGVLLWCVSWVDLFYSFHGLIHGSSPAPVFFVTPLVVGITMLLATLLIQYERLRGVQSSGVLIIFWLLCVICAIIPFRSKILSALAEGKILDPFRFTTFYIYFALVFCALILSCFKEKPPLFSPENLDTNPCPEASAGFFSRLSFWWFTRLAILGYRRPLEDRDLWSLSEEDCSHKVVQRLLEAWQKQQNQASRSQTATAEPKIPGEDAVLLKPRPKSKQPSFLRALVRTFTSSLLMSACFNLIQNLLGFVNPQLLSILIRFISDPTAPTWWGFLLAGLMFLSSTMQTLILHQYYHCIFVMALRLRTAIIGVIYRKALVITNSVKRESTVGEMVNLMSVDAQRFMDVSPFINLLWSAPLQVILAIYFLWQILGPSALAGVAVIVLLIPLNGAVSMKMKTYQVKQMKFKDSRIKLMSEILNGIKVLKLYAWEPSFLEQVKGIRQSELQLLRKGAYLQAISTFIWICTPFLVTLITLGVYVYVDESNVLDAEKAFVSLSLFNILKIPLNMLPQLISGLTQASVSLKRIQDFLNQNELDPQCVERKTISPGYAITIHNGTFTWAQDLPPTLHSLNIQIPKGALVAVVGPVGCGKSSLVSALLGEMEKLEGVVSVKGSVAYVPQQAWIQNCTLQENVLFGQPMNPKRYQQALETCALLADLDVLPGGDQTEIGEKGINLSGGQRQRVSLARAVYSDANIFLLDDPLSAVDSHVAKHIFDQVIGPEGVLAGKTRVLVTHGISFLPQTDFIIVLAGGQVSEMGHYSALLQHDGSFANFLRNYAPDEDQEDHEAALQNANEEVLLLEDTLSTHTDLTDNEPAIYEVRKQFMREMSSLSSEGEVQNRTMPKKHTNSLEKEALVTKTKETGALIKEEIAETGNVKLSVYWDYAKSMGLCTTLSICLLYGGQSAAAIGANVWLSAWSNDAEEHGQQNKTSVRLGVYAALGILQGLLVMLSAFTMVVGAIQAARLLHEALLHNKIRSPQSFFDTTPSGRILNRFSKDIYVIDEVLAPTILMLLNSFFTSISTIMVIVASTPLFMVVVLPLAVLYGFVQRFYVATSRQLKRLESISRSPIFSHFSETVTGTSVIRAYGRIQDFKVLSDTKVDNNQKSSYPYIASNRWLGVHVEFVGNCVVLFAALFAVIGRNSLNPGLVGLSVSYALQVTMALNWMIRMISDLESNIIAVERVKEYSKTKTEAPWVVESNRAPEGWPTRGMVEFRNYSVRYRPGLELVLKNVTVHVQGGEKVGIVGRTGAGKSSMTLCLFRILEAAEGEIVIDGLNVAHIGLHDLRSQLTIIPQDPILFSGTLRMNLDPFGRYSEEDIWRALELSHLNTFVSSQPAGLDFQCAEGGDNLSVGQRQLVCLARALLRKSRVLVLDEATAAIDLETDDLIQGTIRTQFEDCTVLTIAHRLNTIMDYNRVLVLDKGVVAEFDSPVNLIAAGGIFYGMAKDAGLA
Structure (SMILES),Activity [1],Activity [2]
C[C@H](CCC(=O)O)[C@H]1CC[C@H]2[C@@H]3CC[C@@H]4C[C@H](O)CC[C@]4(C)[C@H]3CC[C@]12C [LITHOCHOLIC ACID],inducer [],–
CO[C@H]1/C=C/O[C@@]2(C)Oc3c(C)c(O)c4c(O)c(c(/C=N/N5CCN(C)CC5)c(O)c4c3C2=O)NC(=O)/C(C)=C\C=C\[C@H](C)[C@H](O)[C@@H](C)[C@@H](O)[C@@H](C)[C@H](OC(C)=O)[C@@H]1C [RIFAMPIN],inducer [],–
CC(C)(C(=O)c1cccnc1)c1cccnc1 [METYRAPONE],inducer [],–
Clc1ccccc1C(c1ccccc1)(c1ccccc1)n1ccnc1 [CLOTRIMAZOLE],inducer [],–
C#C[C@]1(O)CC[C@H]2[C@@H]3CCC4=CC(=O)CCC4=C3[C@@H](c3ccc(N(C)C)cc3)C[C@]21C,inducer [],inducer []
CC(=O)[C@H]1[C@H](C#N)C[C@H]2[C@@H]3CC=C4C[C@@H](O)CC[C@]4(C)[C@H]3CC[C@@]21C [PREGNENOLONE CARBONITRILE],inducer [],–
COC(=O)C1=C(C)NC(C)=C(C(=O)OC)C1c1ccccc1[N+](=O)[O-] [NIFEDIPINE],inducer [],–
